The IC50 is the concentration needed to halve the response being measured. Higher therefore signals lower potency. As a reminder, the EC50 is the concentration giving half of the maximal effect. The low end stands for greater potency, the high end for weaker potency.

In test [1] the test system is Wnt activity (Sp5-Luc reporter, SW480 colon carcinoma cells). Description: Sp5-Luc Wnt reporter gene assay in SW480 colon carcinoma cells. It is filed as cell-based. As to conditions: Homo sapiens; SW480 cells stably expressing Sp5-Luc reporter; 42 h incubation; BrightGlo luminescence normalized to DMSO. An excerpt:
The screening assay for Wnt activity is described as follows. Reporter cell lines can be generated by stably transducing cancer cell lines (e.g., colon cancer) or primary cells (e.g., IEC-6 intestinal cells) with a lentiviral construct that includes a Wnt-responsive promoter driving expression of the firefly luciferase gene.
SW480 colon carcinoma cells were transduced with a lentiviral vector expressing luciferase with a human Sp5 promoter consisting of a sequence of eight TCF/LEF binding sites. SW480 cells stably expressing the Sp5-Luc reporter gene and a hygromycin resistance gene were selected by treatment with 150 μg/ml of hygromycin for 7 days. These stably transduced SW480 cells were expanded in cell culture and used for all further screening activities. For Sp5-Luc reporter gene assays, the cells were plated at 10,000 cells/well in 96-well plates with growth medium containing 10% fetal calf serum and incubated overnight at 37° C. and 5% CO2. Each compound was dissolved in DMSO as a 10 mM stock in standard j-vials and used to prepare compound source plates in dose-response format with 3-fold serial dilutions and a 10 mM top concentration. Compound transfer from serially diluted source plates to assay plates containing the cells was accomplished using a pintool (Multimek 96, Beckman equipped with V&P Scientific FP1S50H pins) based liquid handling protocol. This protocol used a slotted pin to transfer 50 nl of compound from a source plate well to an assay plate well containing 50 μl of cells in growth medium. […] Control wells received 50 nl of DMSO treatment for normalization and calculating IC50 values. The treated cells were incubated at 37° C. and 5% CO2 for an additional forty-two hours. Following incubation, the growth medium was removed and 50 μl of BrightGlo luminescence reagent (Promega) was added to each well of the 96-well assay plates. The plates were placed on an orbital shaker for 5 min and then luminescence was quantified on the Victor3 (Perkin Elmer) plate reader. Readings were normalized to DMSO only treated cells, and normalized activities were utilized for IC50 calculations using the dose-response log (inhibitor) vs. response-variable slope (four parameters) nonlinear regression feature available in GraphPad Prism 5.0 or 6.0.
A general note: Reporter assays use an easily measured gene product as a stand-in for the process of interest.

Test [2] has as its system primary human fibroblasts derived from IPF patients (LL29 cells). Description: Inhibition of TGF-β1-induced fibrosis (αSMA staining) in primary human fibroblasts from IPF patients. The class given is cell-based. The conditions noted are these: Fibroblast, 96 h, TGF-β1 20 ng/mL, 4 days, 11-point dose-response 10 μM to 1.87 nM. An excerpt:
The above synthesized compounds were screened using primary human fibroblasts (derived from IPF patients) treated with TGF-β1 to determine their ability to inhibit the fibrotic process.
Primary human fibroblasts derived from IPF patients (LL29 cells) [^1Xiaoqiu Liu, et. al., “Fibrotic Lung Fibroblasts Show Blunted Inhibition by cAMP Due to Deficient cAMP Response Element-Binding Protein Phosphorylation”, Journal of Pharmacology and Experimental Therapeutics (2005), 315(2), 678-687; ^2Watts, K. L., et. al., “RhoA signaling modulates cyclin D1 expression in human lung fibroblasts; implications for idiopathic pulmonary fibrosis”, Respiratory Research (2006), 7(1), 88] were obtained from American Type Culture Collection (ATCC) and expanded in F12 medium supplemented with 15% Fetal Bovine Serum and Penicillin/Streptomycin.
Each compound was dissolved in DMSO as a 10 mM stock and used to prepare compound source plates. Serial dilution (1:2, 11-point dose-response curves from 10 μM to 1.87 nM) and compound transfer was performed using the ECHO 550 (Labcyte, Sunnyvale, Calif.) into 384-well clear bottom assay plates (Greiner Bio-One) with appropriate DMSO backfill for a final DMSO concentration of 0.1%. LL29 cells were plated at 1,500 cells/well in 80 μl/well F12 medium supplemented with 1% Fetal Bovine Serum. One hour after addition of the cells, TGF-β1 (Peprotech; 20 ng/mL) was added to the plates to induce fibrosis (ref. 1 and 2 above). Wells treated with TGF-β1 and containing DMSO were used as controls. Cells were incubated at 37° C. and 5% CO2 for 4 days. Following incubation for 4 days, SYTOX green nucleic acid stain (Life Technologies [Thermo Fisher Scientific]) was added to the wells at a final concentration of 1 uM and incubated at room temperature for 30 min. Cells were then fixed using 4% formaldehyde (Electron Microscopy Sciences), washed 3 times with PBS followed by blocking and permeabilization using 3% Bovine Serum Albumin (BSA; Sigma) and 0.3% Triton X-100 (Sigma) in PBS. Cells were then stained with antibody specific to α-smooth muscle actin (αSMA; Abcam) (ref 1 and 2 above) in 3% Bovine Serum Albumin (BSA; Sigma) and 0.3% Triton X-100 (Sigma) in PBS, and incubated overnight at 4° C. Cells were then washed 3 times with PBS, followed by incubation with Alexa Flor-647 conjugated secondary antibody (Life Technologies [Thermo Fisher Scientific]) and DAPI at room temperature for 1 hour. Cells were then washed 3 times with PBS and plates were sealed for imaging. αSMA staining was imaged by excitation at 630 nm and emission at 665 nm and quantified using the Compartmental Analysis program on the CellInsight CX5 (Thermo Scientific). Dead or apoptotic cells were excluded from analysis based on positive SYTOX green staining. % of total cells positive for αSMA were counted in each well and normalized to the average of 11 wells treated with TGF-β1 on the same plate using Dotmatics' Studies Software. The normalized averages (fold change over untreated) of 3 replicate wells for each compound concentration were used to create dose-responses curves and EC50 values were calculated using non-linear regression curve fit in the Dotmatics' Studies Software. The EC50 values are reported.

A value given as a limit tells only on which side of the number the result lay.

Compound `CN(C)c1cncc(-c2cnc3[nH]nc(-c4nc5c(-c6cccc(F)c6)nccc5[nH]4)c3c2)c1` [Compound 7, 5-(3-(4-(3-Fluorophenyl)-1H-imidazo[4,5-c]pyridin-2-yl)-1H-pyrazolo[3,4-b]pyridin-5-yl)-N,N-dimethylpyridin-3-amine] gave an IC50 in test [1] of 0.0353 µM. In addition, the 50% effective concentration (EC50) in test [2] came to 0.365 µM.

Turning to `CN(C)Cc1cncc(-c2cnc3[nH]nc(-c4nc5c(-c6cccc(F)c6)nccc5[nH]4)c3c2)c1` [Compound 13, 1-(5-(3-(4-(3-Fluorophenyl)-1H-imidazo[4,5-c]pyridin-2-yl)-1H-pyrazolo[3,4-b]pyridin-5-yl)pyridin-3-yl)-N,N-dimethylmethanamine], in test [1], the 50% inhibitory concentration (IC50) stood at 0.339 µM. The compound also returned a half-maximal effective concentration (EC50) in test [2] of 0.03 µM.

For the compound `O=C(Nc1cncc(-c2cnc3[nH]nc(-c4nc5c(-c6cccc(F)c6)nccc5[nH]4)c3c2)c1)C1CC1` [Compound 19, N-(5-(3-(4-(3-Fluorophenyl)-1H-imidazo[4,5-c]pyridin-2-yl)-1H-pyrazolo[3,4-b]pyridin-5-yl)pyridin-3-yl)cyclopropanecarboxamide], the midpoint of inhibition in test [1], the IC50, lay at 0.005 µM. Further, it took 0.027 µM to reach a half-maximal effect in test [2] (EC50).

For `CC(C)CC(=O)Nc1cncc(-c2cnc3[nH]nc(-c4nc5c(-c6ccc(F)cc6)nccc5[nH]4)c3c2)c1` [Compound 28, N-(5-(3-(4-(4-Fluorophenyl)-1H-imidazo[4,5-c]pyridin-2-yl)-1H-pyrazolo[3,4-b]pyridin-5-yl)pyridin-3-yl)-3-methylbutanamide], it took 0.0377 µM to reach half-maximal inhibition in test [1] (IC50). The compound also returned an EC50 in test [2] of 0.881 µM.

In test [1], `CC(C)(C)C(=O)Nc1cncc(-c2cnc3[nH]nc(-c4nc5c(-c6ccc(F)cc6)nccc5[nH]4)c3c2)c1` [Compound 34, N-(5-(3-(4-(4-Fluorophenyl)-1H-imidazo[4,5-c]pyridin-2-yl)-1H-pyrazolo[3,4-b]pyridin-5-yl)pyridin-3-yl)pivalamide] registered a 50% inhibitory concentration (IC50) of 0.152 µM. Also, the concentration giving a half-maximal response (EC50) in test [2] came out at 3.06 µM.

In test [1], `Fc1ccc(-c2nccc3[nH]c(-c4n[nH]c5ncc(-c6cncc(CN7CCCC7)c6)cc45)nc23)cc1` [Compound 40, 3-(4-(4-Fluorophenyl)-1H-imidazo[4,5-c]pyridin-2-yl)-5-(5-(pyrrolidin-1-ylmethyl)pyridin-3-yl)-1H-pyrazolo[3,4-b]pyridine] gave an IC50 above 10 µM. The concentration giving a half-maximal response (EC50) in test [2] is at least 9.99 µM.

The compound `CC(C)C(=O)Nc1cncc(-c2cnc3[nH]nc(-c4nc5c(-c6ccccc6F)nccc5[nH]4)c3c2)c1` [Compound 61, N-(5-(3-(4-(2-Fluorophenyl)-1H-imidazo[4,5-c]pyridin-2-yl)-1H-pyrazolo[3,4-b]pyridin-5-yl)pyridin-3-yl)isobutyramide] gave a 50% inhibitory concentration (IC50) in test [1] of 0.028 µM. In test [2], the EC50 was above 10 µM.

The compound `CC(C)(C)CC(=O)Nc1cncc(-c2cnc3[nH]nc(-c4nc5c(-c6ccccc6F)nccc5[nH]4)c3c2)c1` [Compound 68, N-(5-(3-(4-(2-Fluorophenyl)-1H-imidazo[4,5-c]pyridin-2-yl)-1H-pyrazolo[3,4-b]pyridin-5-yl)pyridin-3-yl)-3,3-dimethylbutanamide] gave an IC50 in test [1] of 0.0957 µM. Besides, the half-maximal effective concentration (EC50) in test [2] came out at 0.93 µM.

In the case of `O=C(Nc1cncc(-c2cnc3[nH]nc(-c4nc5c(-c6ccccc6F)nccc5[nH]4)c3c2)c1)C1CCCC1` [Compound 73, N-(5-(3-(4-(2-Fluorophenyl)-1H-imidazo[4,5-c]pyridin-2-yl)-1H-pyrazolo[3,4-b]pyridin-5-yl)pyridin-3-yl)cyclopentanecarboxamide], the IC50 in test [1] worked out at 0.0602 µM. The EC50 in test [2] stood at 0.611 µM.

As for `CC(C)C(=O)Nc1cncc(-c2cnc3[nH]nc(-c4nc5c(-c6cccnc6)nccc5[nH]4)c3c2)c1` [Compound 87, N-(5-(3-(4-(Pyridin-3-yl)-1H-imidazo[4,5-c]pyridin-2-yl)-1H-pyrazolo[3,4-b]pyridin-5-yl)pyridin-3-yl)isobutyramide], the concentration for half-maximal inhibition (IC50) in test [1] is above 10 µM. In test [2], this compound showed a half-maximal effective concentration (EC50) of 0.009 µM.

In the case of `CC(C)Nc1cncc(-c2cnc3[nH]nc(-c4nc5c(-c6cccnc6)nccc5[nH]4)c3c2)c1` [Compound 90, N-Isopropyl-5-(3-(4-(pyridin-3-yl)-1H-imidazo[4,5-c]pyridin-2-yl)-1H-pyrazolo[3,4-b]pyridin-5-yl)pyridin-3-amine], in test [1], the IC50 is 0.0797 µM. In test [2], this compound registered a half-maximal effective concentration (EC50) of at least 9.99 µM.

`c1ccc(CNCc2cncc(-c3cnc4[nH]nc(-c5nc6c(-c7cccnc7)nccc6[nH]5)c4c3)c2)cc1` [Compound 101, N-Benzyl-1-(5-(3-(4-(pyridin-3-yl)-1H-imidazo[4,5-c]pyridin-2-yl)-1H-pyrazolo[3,4-b]pyridin-5-yl)pyridin-3-yl)methanamine]: the IC50 in test [1] was above 10 µM. In test [2], this compound came in with an EC50 of at least 9.99 µM.

With `Cc1ccncc1-c1cnc2[nH]nc(-c3nc4c(-c5ccncc5)nccc4[nH]3)c2c1` [Compound 109, 5-(4-Methylpyridin-3-yl)-3-(4-(pyridin-4-yl)-1H-imidazo[4,5-c]pyridin-2-yl)-1H-pyrazolo[3,4-b]pyridine], the IC50 in test [1] is above 10 µM. This compound yielded a concentration giving a half-maximal response (EC50) in test [2] of at least 9.99 µM.

Regarding `O=C(Cc1ccccc1)Nc1cncc(-c2cnc3[nH]nc(-c4nc5c(-c6ccncc6)nccc5[nH]4)c3c2)c1` [Compound 114, 2-Phenyl-N-(5-(3-(4-(pyridin-4-yl)-1H-imidazo[4,5-c]pyridin-2-yl)-1H-pyrazolo[3,4-b]pyridin-5-yl)pyridin-3-yl)acetamide], the IC50 in test [1] was above 10 µM. This compound came in with a half-maximal effective concentration (EC50) in test [2] of at least 9.99 µM.

Compound `CC(C)CC(=O)Nc1cncc(-c2cnc3[nH]nc(-c4nc5c(-c6cc(F)cc(OCCN7CCCC7)c6)nccc5[nH]4)c3c2)c1` [Compound 1236, N-(5-(3-(4-(3-Fluoro-5-(2-(pyrrolidin-1-yl)ethoxy)phenyl)-1H-imidazo[4,5-c]pyridin-2-yl)-1H-pyrazolo[3,4-b]pyridin-5-yl)pyridin-3-yl)-3-methylbutanamide] showed an IC50 in test [1] of 0.445 µM.

Consider `CC(C)CC(=O)Nc1cncc(-c2cnc3[nH]nc(-c4nc5c(-c6cc(O)cc(F)c6)nccc5[nH]4)c3c2)c1` [Compound 1280, N-(5-(3-(4-(3-Fluoro-5-hydroxyphenyl)-1H-imidazo[4,5-c]pyridin-2-yl)-1H-pyrazolo[3,4-b]pyridin-5-yl)pyridin-3-yl)-3-methylbutanamide], for which the IC50 in test [1] is 0.09 µM. This IC50 lies about 4.9-fold lower than the previous one.

Compound `COc1cc(F)cc(-c2nccc3[nH]c(-c4n[nH]c5ncc(-c6cncc(NC(=O)CC(C)C)c6)cc45)nc23)c1` [Compound 1324, N-(5-(3-(4-(3-Fluoro-5-methoxyphenyl)-1H-imidazo[4,5-c]pyridin-2-yl)-1H-pyrazolo[3,4-b]pyridin-5-yl)pyridin-3-yl)-3-methylbutanamide] had an IC50 in test [1] of 0.085 µM.

(Values after patent publication US9493487B2, “3-(1H-imidazo[4,5-C]pyridin-2-YL)-1H-pyrazolo[3,4-B]pyridine and therapeutic uses thereof” (Samumed, LLC, priority 2014, dated 2016).)
